Patent US10287255B2, “Compounds as histone deacetylase 6 inhibitors and pharmaceutical compositions comprising the same” (CHONG KUN DANG PHARMACEUTICAL CORP., priority 2014, dated 2019)

Experiments:
[1] = target: T1, human recombinant HDAC1 (Homo sapiens, UniProt Q13547); test: HDAC1 enzyme activity inhibition assay (in vitro, fluorimetric); type: biochemical; details: human recombinant HDAC1, fluorimetric kit, 30° C. 60 minutes
T1 construct: purchased Enzo Life Science BML-SE456
Summary of the method: (§1)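 IC50 values derive from fluorescence (Ex 360, Em 460) after developer treatment (30 min) of reactions of recombinant human HDAC1 or HDAC6 with 10 μM Fluor de Lys-SIRT1 substrate (60 min, 30 °C). Compounds were serially diluted 5-fold; 0.3 μg enzyme was used for HDAC1, with HDAC6 tested identically.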

[2] = target: T2, human recombinant HDAC6 (Homo sapiens, UniProt Q9UBN7); test: HDAC6 enzyme activity inhibition assay (in vitro, fluorimetric); type: biochemical; details: for HDAC6 selectivity (fold): HDAC6 selectivity over HDAC1; for IC50: human recombinant HDAC6, fluorimetric kit, same protocol as HDAC1
T2 construct: purchased Calbiochem 382180
T2 sequence (Q9UBN7 1-1215): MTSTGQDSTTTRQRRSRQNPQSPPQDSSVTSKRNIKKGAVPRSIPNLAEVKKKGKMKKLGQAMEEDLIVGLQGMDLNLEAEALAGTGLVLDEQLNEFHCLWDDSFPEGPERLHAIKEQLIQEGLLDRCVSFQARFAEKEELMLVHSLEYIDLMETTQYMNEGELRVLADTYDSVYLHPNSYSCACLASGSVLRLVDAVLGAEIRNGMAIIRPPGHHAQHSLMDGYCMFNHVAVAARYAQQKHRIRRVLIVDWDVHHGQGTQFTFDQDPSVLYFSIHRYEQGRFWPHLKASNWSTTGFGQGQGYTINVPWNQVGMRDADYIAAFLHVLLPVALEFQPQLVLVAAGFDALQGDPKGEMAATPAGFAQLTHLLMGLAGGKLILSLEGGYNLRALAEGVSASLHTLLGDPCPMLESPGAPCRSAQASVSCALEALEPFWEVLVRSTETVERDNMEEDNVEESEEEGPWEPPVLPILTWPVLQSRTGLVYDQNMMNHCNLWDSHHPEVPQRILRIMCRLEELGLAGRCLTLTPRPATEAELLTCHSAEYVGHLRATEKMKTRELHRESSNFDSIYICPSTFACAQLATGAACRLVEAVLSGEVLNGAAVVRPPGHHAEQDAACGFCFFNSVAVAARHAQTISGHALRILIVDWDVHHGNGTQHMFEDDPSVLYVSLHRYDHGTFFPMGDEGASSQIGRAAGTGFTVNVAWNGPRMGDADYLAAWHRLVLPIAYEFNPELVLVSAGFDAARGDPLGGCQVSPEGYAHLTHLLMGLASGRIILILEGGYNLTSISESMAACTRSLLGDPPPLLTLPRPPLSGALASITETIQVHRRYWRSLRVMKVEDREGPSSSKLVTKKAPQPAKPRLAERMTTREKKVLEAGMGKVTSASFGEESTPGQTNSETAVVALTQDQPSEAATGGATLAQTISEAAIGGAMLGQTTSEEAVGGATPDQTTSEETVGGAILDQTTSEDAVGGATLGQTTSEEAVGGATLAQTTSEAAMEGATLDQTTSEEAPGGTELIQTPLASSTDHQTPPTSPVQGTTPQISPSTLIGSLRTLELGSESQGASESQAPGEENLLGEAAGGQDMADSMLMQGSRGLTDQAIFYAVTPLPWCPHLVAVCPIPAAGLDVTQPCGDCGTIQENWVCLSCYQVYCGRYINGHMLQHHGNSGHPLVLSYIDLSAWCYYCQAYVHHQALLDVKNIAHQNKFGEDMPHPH
Summary of the method: as §1

T1 sequence (Q13547 whole entry): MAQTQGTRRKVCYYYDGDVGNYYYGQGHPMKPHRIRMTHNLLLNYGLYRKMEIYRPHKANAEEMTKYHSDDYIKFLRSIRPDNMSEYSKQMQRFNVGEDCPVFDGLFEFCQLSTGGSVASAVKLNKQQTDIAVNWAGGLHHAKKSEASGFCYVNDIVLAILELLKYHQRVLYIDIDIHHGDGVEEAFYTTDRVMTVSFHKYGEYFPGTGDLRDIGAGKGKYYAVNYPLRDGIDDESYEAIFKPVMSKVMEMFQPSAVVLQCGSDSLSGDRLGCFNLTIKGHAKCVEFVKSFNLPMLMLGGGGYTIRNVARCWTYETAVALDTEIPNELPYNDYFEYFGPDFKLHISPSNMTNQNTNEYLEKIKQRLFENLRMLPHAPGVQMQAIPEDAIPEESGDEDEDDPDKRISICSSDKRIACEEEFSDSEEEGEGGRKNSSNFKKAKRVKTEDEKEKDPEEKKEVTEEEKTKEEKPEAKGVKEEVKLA

Row | Structure (SMILES) | IC50 [1] [nM] | HDAC6 selectivity (fold) [2] [fold] | IC50 [2] [nM]
1 | C[C@@H]1CN(Cc2ccc(C(=O)NO)cc2)C[C@H](C)N1Cc1ccc(CN2CCCCC2)cc1 [Compound 467, 4-(((3R,5S)-3,5-dimethyl-4-(4-(piperidin-1-ylmethyl)benzyl)piperazin-1-yl)methyl)-N-hydroxybenzamide] | > 10000 | >204 | 49
2 | C[C@@H]1CN(Cc2ccc(C(=O)NO)cc2)C[C@H](C)N1Cc1ccc(CN2CCN(C)CC2)cc1 [Compound 468, 4-(((3R,5S)-3,5-dimethyl-4-(4-((4-methylpiperazin-1-yl)methyl)benzyl)piperazin-1-yl)methyl)-N-hydroxybenzamide] | 20000 | 690 | 29
3 | CCN(CC)Cc1cccc(CN2C[C@@H](C)N(Cc3ccc(C(=O)NO)cc3)[C@@H](C)C2)c1 [Compound 478, 4-(((2S,6R)-4-(3-((diethylamino)methyl)benzyl)-2,6-dimethylpiperazin-1-yl)methyl)-N-hydroxybenzamide] | 6570 | 10 | 640
4 | C[C@@H]1CN(Cc2cccc(CN3CCCC3)c2)C[C@H](C)N1Cc1ccc(C(=O)NO)cc1 [Compound 479, 4-(((2S,6R)-2,6-dimethyl-4-(3-(pyrrolidin-1-ylmethyl)benzyl)piperazin-1-yl)methyl)-N-hydroxybenzamide] | 5300 | 12 | 433
5 | C[C@@H]1CN(Cc2ccc(C(=O)NO)cc2)C[C@H](C)N1Cc1ccccc1C1=CCN(S(C)(=O)=O)CC1 [Compound 481, 4-(((3R,5S)-3,5-dimethyl-4-(2-(1-(methylsulfonyl)-1,2,3,6-tetrahydropyridin-4-yl)benzyl)piperazin-1-yl)methyl)-N-hydroxybenzamide] | 16200 | 153 | 106
6 | CC(=O)N1CC=C(c2ccccc2CN2[C@H](C)CN(Cc3ccc(C(=O)NO)cc3)C[C@@H]2C)CC1 [Compound 482, 4-(((3R,5S)-4-(2-(1-acetyl-1,2,3,6-tetrahydropyridin-4-yl)benzyl)-3,5-dimethylpiperazin-1-yl)methyl)-N-hydroxybenzamide] | 12500 | 121 | 103
7 | C[C@@H]1CN(Cc2ccc(C(=O)NO)cc2)C[C@H](C)N1Cc1ccccc1C1=CCN(CC(F)(F)F)CC1 [Compound 483, 4-(((3R,5S)-3,5-dimethyl-4-(2-(1-(2,2,2,2-trifluoroethyl)-1,2,3,6-tetrahydropyridin-4-yl)benzyl)piperazin-1-yl)methyl)-N-hydroxybenzamide] | 17100 | 166 | 103
8 | CC(C)N1CC=C(c2ccccc2CN2[C@H](C)CN(Cc3ccc(C(=O)NO)cc3)C[C@@H]2C)CC1 [Compound 484, N-hydroxy-4-(((3R,5S)-4-(2-(1-isopropyl-1,2,3,6-tetrahydropyridin-4-yl)benzyl)-3,5-dimethylpiperazin-1-yl)methyl)benzamide] | 19600 | 151 | 130
9 | CCN1CC=C(c2ccccc2CN2[C@H](C)CN(Cc3ccc(C(=O)NO)cc3)C[C@@H]2C)CC1 [Compound 485, 4-(((3R,5S)-4-(2-(1-ethyl-1,2,3,6-tetrahydropyridin-4-yl)benzyl)-3,5-dimethylpiperazin-1-yl)methyl)-N-hydroxybenzamide] | 14700 | 101 | 145
10 | CC(=O)N1CCN(Cc2ccc(CN3[C@H](C)CN(Cc4ccc(C(=O)NO)cc4)C[C@@H]3C)cc2)CC1 [Compound 486, 4-(((3R,5S)-4-(4-((4-acetylpiperazin-1-yl)methyl)benzyl)-3,5-dimethylpiperazin-1-yl)methyl)-N-hydroxybenzamide] | > 10000 | >79 | 126
11 | C[C@@H]1CN(Cc2c[nH]c3cc(C(=O)NO)ccc23)C[C@H](C)N1Cc1ccccc1 [Compound 520, 3-(((3R,5S)-4-benzyl-3,5-dimethylpiperazin-1-yl)methyl)-N-hydroxy-1H-indole-6-carboxamide] | > 10000 | >11 | 860

These reach a lower IC50 [1]. Values come first.

Row | IC50 [1] [nM] | HDAC6 selectivity (fold) [2] [fold] | IC50 [2] [nM] | Structure (SMILES)
12 | 4700 | 18 | 256 | C[C@@H]1CN(Cc2ccc(C(=O)NO)cc2)C[C@H](C)N1C(=O)c1ccc(CN2CCN(S(C)(=O)=O)CC2)cc1 [Compound 463, 4-(((3R,5S)-3,5-dimethyl-4-(4-((4-(methylsulfonyl)piperazin-1-yl)methyl)benzoyl)piperazin-1-yl)methyl)-N-hydroxybenzamide]
13 | 4200 | 18 | 238 | C[C@@H]1CN(Cc2ccc(C(=O)NO)cc2)C[C@H](C)N1C(=O)c1ccc(CN2CCCC2)cc1 [Compound 461, 4-(((3R,5S)-3,5-dimethyl-4-(4-(pyrrolidin-1-ylmethyl)benzoyl)piperazin-1-yl)methyl)-N-hydroxybenzamide]
14 | 3200 | 12 | 264 | C[C@@H]1CN(Cc2ccc(C(=O)NO)cc2)C[C@H](C)N1C(=O)c1ccc(CN2CCN(C)CC2)cc1 [Compound 462, 4-(((3R,5S)-3,5-dimethyl-4-(4-((4-methylpiperazin-1-yl)methyl)benzoyl)piperazin-1-yl)methyl)-N-hydroxybenzamide]
15 | 2700 | 11 | 253 | C[C@@H]1CN(Cc2ccc(-c3ccco3)cc2)C[C@H](C)N1Cc1ccc(/C=C/C(=O)NO)cc1 [Compound 477, (E)-3-(4-(((2S,6R)-4-(4-(furan-2-yl)benzyl)-2,6-dimethylpiperazin-1-yl)methyl)phenyl)-N-hydroxyacrylamide]
16 | 1100 | 4 | 296 | CCN(CC)Cc1cccc(C(=O)N2C[C@@H](C)N(Cc3ccc(/C=C/C(=O)NO)cc3)[C@@H](C)C2)c1 [Compound 487, (E)-3-(4-(((2S,6R)-4-(3-((diethylamino)methyl)benzoyl)-2,6-dimethylpiperazin-1-yl)methyl)phenyl)-N-hydroxyacrylamide]
17 | 1000 | 2 | 467 | C[C@@H]1CN(C(=O)c2cccc(CN3CCCC3)c2)C[C@H](C)N1Cc1ccc(/C=C/C(=O)NO)cc1 [Compound 480, (E)-3-(4-(((2S,6R)-2,6-dimethyl-4-(3-(pyrrolidin-1-ylmethyl)benzoyl)piperazin-1-yl)methyl)phenyl)-N-hydroxyacrylamide]
18 | 900 | 6 | 142 | CCN(CC)Cc1cccc(CN2C[C@@H](C)N(Cc3ccc(/C=C/C(=O)NO)cc3)[C@@H](C)C2)c1 [Compound 476, (E)-3-(4-(((2S,6R)-4-(3-((diethylamino)methyl)benzyl)-2,6-dimethylpiperazin-1-yl)methyl)phenyl)-N-hydroxyacrylamide]
19 | 800 | 7 | 114 | C[C@@H]1CN(Cc2cccc(CN3CCCC3)c2)C[C@H](C)N1Cc1ccc(/C=C/C(=O)NO)cc1 [Compound 475, (E)-3-(4-(((2S,6R)-2,6-dimethyl-4-(3-(pyrrolidin-1-ylmethyl)benzyl)piperazin-1-yl)methyl)phenyl)-N-hydroxyacrylamide]
20 | 700 | 35 | 19 | C[C@@H]1CN(Cc2ccc(C(=O)NO)cc2)C[C@H](C)N1Cc1ccc(CN2CCCC2)cc1 [Compound 466, 4-(((3R,5S)-3,5-dimethyl-4-(4-(pyrrolidin-1-ylmethyl)benzyl)piperazin-1-yl)methyl)-N-hydroxybenzamide]
21 | 200 | 3 | 55 | C[C@@H]1CN(Cc2ccc(/C=C/C(=O)NO)cc2)C[C@H](C)N1Cc1cccc(CN2CCOCC2)c1 [Compound 472, (E)-3-(4-(((3R,5S)-3,5-dimethyl-4-(3-(morpholinomethyl)benzyl)piperazin-1-yl)methyl)phenyl)-N-hydroxyacrylamide]
